Measurements: patent publication US20210009630A1, “CYCLIC DINUCLEOTIDES AS STING AGONISTS” (Janssen Biotech, Inc., priority 2017, published 2021)

Legend:
[1] = biological target: T1, human STING (E. coli produced truncated STING protein) (Homo sapiens, UniProt Q86WV6, H232R); experiment: STING SPR binding assay; conditions: steady state affinity, 1:1 binding model, 25° C.
T1 construct: contains residues 139-379 of Q86WV6 with an R at position 232 (H232R); HIS tag (N, cleaved yes); made in house; host or cells: E. coli
T1 sequence (Q86WV6 139-379 H232R): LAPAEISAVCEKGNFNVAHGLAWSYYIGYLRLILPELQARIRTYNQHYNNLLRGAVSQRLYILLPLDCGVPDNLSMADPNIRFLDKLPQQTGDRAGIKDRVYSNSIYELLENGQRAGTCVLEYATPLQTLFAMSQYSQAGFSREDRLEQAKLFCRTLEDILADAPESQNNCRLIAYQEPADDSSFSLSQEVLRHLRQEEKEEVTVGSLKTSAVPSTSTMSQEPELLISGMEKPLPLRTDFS
Method: Compounds were analyzed on an S200 biacore SPR instrument (GE Healthcare). E. coli produced truncated STING protein was immobilized on a series S streptavidin chip via biotin capture (GE Healthcare #BR100531) with. […] Steady state affinity and kinetic evaluations were carried out using 1:1 binding model (STING was treated as a dimer). Run parameters were as follows: 60 sec on, 300 sec off for the IFM compounds, cyclic-di-GMP (60 sec on/60 sec off), thiol isomer 1 (60 sec on/300 sec off) and cGAMP (60 sec on/1200 sec off) with a flow rate of 50 μL/min and data collection at 40 Hz at 25° C.

[2] = system: human STING pathway (THP1-ISG cells); experiment: STING human cell reporter assay; format: cell-based; conditions: Homo sapiens, IRF-inducible SEAP reporter, 24 h, means of at least three values
Method: Agonism of the human STING pathway is assessed in THP1-ISG cells (Invivogen, cat #thp-isg) derived from human THP1 monocyte cell line by stable integration of an interferon regulatory factor (IRF)-inducible SEAP reporter construct. THP1-Blue ISG cells express a secreted embryonic alkaline phosphatase (SEAP) reporter gene under the control of an ISG54 minimal promoter in conjunction with five interferon (IFN)-stimulated response elements. As a result, THP1-Blue ISG cells allow the monitoring of IRF activation by determining the activity of SEAP. The levels of IRF-induced SEAP in the cell culture supernatant are readily assessed with alkaline phosphatase detection medium, a SEAP detection reagent. These cells are resistant to Zeocin. 2′3′cGAMP was used as a positive control in this assay. To run the assay, 60,000 cells were dispensed in 30 μL/well of a white, opaque bottom tissue culture treated 384-well plate.
Test compounds were added in a volume of 10 μL (1% DMSO final concentration). Compounds are initially prepared in 100% DMSO, spotted on an compound dilution plate and then diluted in media prior to transfer. The assay was incubated for 24 h at 37° C., 5% CO2 then plates were centrifuged at 1200 rpm (120×g) for 5 min. After final incubation, 90 μL of alkaline phosphatase detection medium-substrate was added to each well of a new 384-well clear plate and 10 μL of the cell supernatant was transferred from the assay plate to the new alkaline phosphatase detection medium-plate using a Biomek FX and mixed 4 times. Plates were incubated at RT for 20 min then absorbance at 655 nm was determined on the Tecan Safire2.

[3] = biological target: human STING (biotinylated STING protein, residues 139-379 of Q86WV6, H232R) (Homo sapiens, UniProt Q86WV6, H232R); experiment: STING SPA binding assay
human STING (biotinylated STING protein, residues 139-379 of Q86WV6, H232R), sequence (Q86WV6 139-379 H232R, one chain of several): as the sequence (Q86WV6 139-379 H232R) above
Method: The HIS tag is cleaved after purification and prior to biotinylation.
Test compounds (80 nL) were added with an acoustic dispenser (EDC Biosystems) in 100% DMSO for a final assay concentration of 1% DMSO. Plates were centrifuged for 1 min and incubated for 60 min at room temperature. […] Plates were dark adapted for 2 h and read on a ViewLux (Perkin Elmer) for 12 min per plate.

[4] = system: CT26 colon carcinoma tumor; experiment: STING in vivo activity, mouse CT26 tumor model; conditions: 0.05 mg intratumorally every three days, three doses, 8 mice per group; for In vivo activity (% TGI): CT26 tumors in Balb/c mice
Method: For all studies, female Balb/c mice were obtained from Charles River Labs (Wilmington, Mass.) and used when they were 6-8 weeks of age and weighed approximately 20 g. All animals were allowed to acclimate and recover from any shipping-related stress for a minimum of 5 days prior to experimental use. Reverse osmosis chlorinated water and irradiated food (Laboratory Autoclavable Rodent Diet 5010, Lab Diet) were provided ad libitum, and the animals were maintained on a 12 h light and dark cycle. Cages and bedding were autoclaved before use and changed weekly. All experiments were carried out in accordance with The Guide for the Care and Use of Laboratory Animals and were approved by the Institutional Animal Care and Use Committee of Janssen R & D, Spring House, Pa. Each experimental group contained 8 mice. In vivo efficacy in a mouse CT26 tumor model was determined by implanting 500,000 CT26 colon carcinoma tumor cells subcutaneously into Balb/c mice and allowing tumors to establish to 100-300 mm^3. Compounds were injected intratumorally formulated in phosphate buffered saline in a volume of 0.1 mL Per injection. Mice were administered 0.05 mg every three days for a total of three doses. Efficacy was measured as the percent tumor growth inhibition (TGI) calculated by the reduction in size of the Treated tumor volume (T) over the Control tumor volume (C) according to the following formula. ((C−T)/(C))*100 when all control animals were still on study. Cures were defined as the number of animals with no measurable tumor detected 10 tumor volume doubling times (TVDT) after the last dose was administered.

[5] = system: THP1-Blue ISG cells (IFN-β secretion); experiment: Human interferon-β induction assay; format: cell-based; conditions: total cumulative IFN-β induction over the dose range tested (0.78 to 50 uM) in THP-1 cells after a 24 hour exposure
Method: THP1-Blue ISG cells are used to measure the secretion of IFN-β into the culture supernatant following STING pathway activation. To run the assay, anti-IFN-β capture antibodies were coated on […] well MultiArray plates (Mesoscale Discovery). After a one hour incubation, plates were washed and 50 μL supernatant from the STING human cell reporter assay plates or IFN-β standards were mixed with 20 μL Sulfotag-conjugated detection antibody in the coated plates. Plates were incubated, shaking for 2 h, washed, and read buffer was applied. Electrochemiluminescence was measured on the SectorImager.

## CO[C@H]1[C@H]2OP(=O)(O)OC[C@@]34CO[C@@H]([C@H](n5cnc6c(N)ncnc65)O3)[C@@H]4OS(=O)(=O)NC[C@H]1O[C@H]2n1cnc2c(=O)[nH]c(N)nc21 [Compound 25]
[1]
  Kd: 3480 nM
[2]
  EC50: 100 nM
[3]
  IC50: 29200 nM
[4]
  In vivo activity (% TGI): 88.9%
[5]
  human IFN-β (ranking value): 6595 pg/mL

## CO[C@H]1[C@H]2OS(=O)(=O)NC[C@H]3O[C@@H](n4cnc5c(N)ncnc54)[C@H](F)[C@@H]3OP(=O)(O)OC[C@H]1O[C@H]2n1cnc2c(=O)[nH]c(N)nc21 [Compound 1]
[1]
  Kd: 1.2 nM
[2]
  EC50: 77 nM
[3]
  IC50: 4.6 nM
[4]
  In vivo activity (% TGI): 108.9%
[4]; number of animals with no measurable tumor 10 tumor volume doubling times after the last dose
  In vivo activity (cures): 6
[5]
  human IFN-β (ranking value): 7930 pg/mL
